test system: cancer cells; experiment: MTT cytotoxic assay of esterification products (Cytotoxicity activity); type: cell-based, human; details: MTT cytotoxic assay, isolated esterification products of E4A
Excerpt: The peaks, fractions and compounds are selected according to the activities of times studies and the changes of peaks. Selecting the HPLC fractions for isolation is according to the cytotoxic activity of the reaction product obtained at a specific time. The compounds having strong to weak activities are selected and isolated. Selecting the HPLC fractions for isolation may be according to the cytotoxic activity of times studies and the change of peaks. The anti-cancer activities are the MTT studies of bone (U2OS), lung (H460), bladder (HTB-9), ovary (ES2), colon (HCT116), pancreas (Capan), ovary(OVCAR3), prostate (DU145), skin (SK-Mel-5), mouth (KB), kidney (A498), breast (MCF-7), liver (HepG2), brain (T98G), leukemia (K562), cervix (HeLa).
Esterification of compound (A), (B), (C), (D1), (D2), (E), (F), (G), (H1), (H2), E4A, E4A2Y, (P1), P(2), terpene, isoprene, triterpenes, hydroxylated triterpenes, with acyl halide, wherein the halide comprise chloride, bromide, fluoride and iodide, wherein the acyl halide comprise acyl chloride, wherein acyl chloride comprise tigloyl chloride, angeloyl chloride, acetyl chloride, crotonoyl chloride, 3,3-Dimethylacryloyl chloride, senecioyl chloride, cinnamoyl chloride, pentenoyl chloride, hexanoyl chloride, benzoyl chloride, ethylbutyryl chloride, propionyl chloride, 2-propenoyl chloride, isobutyryl chloride, butyryl chloride, (2E)-2-pentenoyl chloride, 4-Pentenoyl chloride, 5-hexenoyl chloride, heptanoyl chloride, octanoyl chloride, nonanoyl chloride, decanoyl chloride, Lauroyl chloride, myristoyl chloride, oleoyl chloride. The compounds vary in composition when the time or temperature of the reaction is changed. The peaks, fractions and compounds are selected according to the activities of times studies and the changes of peaks. The compounds having strong to weak activities are selected and isolated. The anti-cancer activities (Cytotoxic Assay) are the MTT studies of bone (U2OS), lung (H460), bladder(HTB-9), ovary (ES2), colon (HCT116), pancreas (Capan), ovary(OVCAR3), prostate (DU145), skin (SK-Mel-5), mouth (KB), kidney (A498), breast (MCF-7), liver (HepG2), brain (T98G), leukemia (K562), cervix (HeLa). The active esterification products are purified with HPLC. The reaction product of mixtures and individual compounds are tested with MTT Cytotoxic Assay. Details of method are in Experiment 3 of the present application. A second esterification of compound can be selected from the above experiment results to produce new active compounds. A partial esterification compound is selected from the above experiments to perform a second or repeated with a third esterification with different acyl chloride in order to produce new active compounds with the experiments in the present application.
Method: 40 mg of triterpene core (fraction IV) was dissolved in 1 ml pyridine in a 50 ml tube. Reaction is started by adding 0.2 ml of acyl chloride (Tigloyl chloride, angeloyl chloride, Acetyl chloride, Crotonoyl chloride, 3,3-Dimethylacryloyl chloride(senecioyl chloride), Cinnamoyl chloride, Pentenoyl chloride, Hexanoyl chloride, benzoyl chloride or Ethylbutyryl chloride). The mixture is stirred for 5 sec, 1 min, 2 min, 5 min, 10 min, 30 min, 1 hr, 2 hr, 18 hr, 2 days or 3 days at 0° C., 25° C. or 75° C. temperature. At the end of reaction, 5 ml of 2N HCl or 1 M NaHCO3 is added to the reaction mixture. The solution is then extracted 3 times with 10 ml of ethyl acetate which is then evaporated under vacuum and at 45C and lyophilization. The reaction product is dissolved in 80% acetonitrile - 0.005% Trifluoroacetic acid or DMSO; and was separated with HPLC. Selecting the HPLC fractions for isolation is according to the cytotoxic activity of the reaction product obtained at a specific reaction time. The active esterification products are purified with HPLC. The reaction product of mixtures and individual compounds are tested with MTT cytotoxic assay. Structures are determined with NMR. […]

Structure (SMILES) | Cytotoxicity activity
CC=C(C)C(=O)OCC1(C)C(OC(=O)C(C)=CC)CCC2(C)C1CCC1(C)C2CC=C2C3CC(C)(C)C(OC(=O)C(C)=CC)C(OC(=O)C(C)=CC)C3(COC(=O)C(C)=CC)C(OC(=O)C(C)=CC)CC21C (centres unmarked) [Compound A19] | none
CC=C(C)C(=O)OCC12C(O)CC3(C)C(=CCC4C5(C)CCC(O)C(C)(CO)C5CCC43C)C1CC(C)(C)C(OC(=O)C(C)=CC)C2OC(=O)C(C)=CC (centres unmarked) [Compound A20] | moderate
CC=C(C)C(=O)OCC1(C)C(O)CCC2(C)C1CCC1(C)C2CC=C2C3CC(C)(C)C(OC(=O)C(C)=CC)C(OC(=O)C(C)=CC)C3(CO)C(O)CC21C (centres unmarked) [Compound A21] | moderate
CC=C(C)C(=O)OC1C(OC(=O)C(C)=CC)C2(CO)C(OC(=O)C(C)=CC)CC3(C)C(=CCC4C5(C)CCC(O)C(C)(CO)C5CCC43C)C2CC1(C)C (centres unmarked) [Compound A22] | moderate
CC=C(C)C(=O)OC1C(OC(=O)C(C)=CC)C2(CO)C(O)CC3(C)C(=CCC4C5(C)CCC(OC(=O)C(C)=CC)C(C)(CO)C5CCC43C)C2CC1(C)C (centres unmarked) [Compound A23] | moderate
CC=C(C)C(=O)OC1C(OC(=O)C(C)=CC)C2(CO)C(O)CC3(C)C(=CCC4C5(C)CCC(O)C(C)(CO)C5CCC43C)C2CC1(C)C (centres unmarked) [Compound A24] | moderate
CC=C(C)C(=O)OCC12C(O)CC3(C)C(=CCC4C5(C)CCC(O)C(C)(CO)C5CCC43C)C1CC(C)(C)C(OC(=O)C(C)=CC)C2O (centres unmarked) [Compound A25] | moderate
CC=C(C)C(=O)OCC12C(O)CC3(C)C(=CCC4C5(C)CCC(O)C(C)(CO)C5CCC43C)C1CC(C)(C)C(O)C2OC(=O)C(C)=CC (centres unmarked) [Compound A26] | moderate
CC=C(C)C(=O)OCC12C(O)CC3(C)C(=CCC4C5(C)CCC(OC(=O)C(C)=CC)C(C)(CO)C5CCC43C)C1CC(C)(C)C(O)C2O (centres unmarked) [Compound A27] | moderate
CC=C(C)C(=O)OCC12C(OC(=O)C(C)=CC)CC3(C)C(=CCC4C5(C)CCC(O)C(C)(CO)C5CCC43C)C1CC(C)(C)C(O)C2O (centres unmarked) [Compound A28] | moderate
CC=C(C)C(=O)OCC1(C)C(O)CCC2(C)C1CCC1(C)C2CC=C2C3CC(C)(C)C(OC(=O)C(C)=CC)C(O)C3(CO)C(O)CC21C (centres unmarked) [Compound A29] | moderate
CC=C(C)C(=O)OCC1(C)C(O)CCC2(C)C1CCC1(C)C2CC=C2C3CC(C)(C)C(O)C(OC(=O)C(C)=CC)C3(CO)C(O)CC21C (centres unmarked) [Compound A30] | moderate
CC=C(C)C(=O)OCC1(C)C(OC(=O)C(C)=CC)CCC2(C)C1CCC1(C)C2CC=C2C3CC(C)(C)C(O)C(O)C3(CO)C(O)CC21C (centres unmarked) [Compound A31] | moderate
CC=C(C)C(=O)OCC1(C)C(O)CCC2(C)C1CCC1(C)C2CC=C2C3CC(C)(C)C(O)C(O)C3(CO)C(OC(=O)C(C)=CC)CC21C (centres unmarked) [Compound A32] | moderate
CC(C)=CC(=O)OCC1(C)C(O)CCC2(C)C1CCC1(C)C2CC=C2C3CC(C)(C)C(O)C(O)C3(CO)C(O)CC21C (centres unmarked) [Compound B1] | moderate
CC(C)=CC(=O)OCC12C(O)CC3(C)C(=CCC4C5(C)CCC(O)C(C)(CO)C5CCC43C)C1CC(C)(C)C(O)C2O (centres unmarked) [Compound B2] | moderate
CC(C)=CC(=O)OCC1(C)C(O)CCC2(C)C1CCC1(C)C2CC=C2C3CC(C)(C)C(O)C(O)C3(COC(=O)C=C(C)C)C(O)CC21C (centres unmarked) [Compound B3] | strong
CC(C)=CC(=O)OCC1(C)C(O)CCC2(C)C1CCC1(C)C2CC=C2C3CC(C)(C)C(OC(=O)C=C(C)C)C(O)C3(COC(=O)C=C(C)C)C(O)CC21C (centres unmarked) [Compound B4] | moderate

Structure (SMILES) | Cytotoxicity activity
CC(C)=CC(=O)OCC1(C)C(O)CCC2(C)C1CCC1(C)C2CC=C2C3CC(C)(C)C(O)C(OC(=O)C=C(C)C)C3(COC(=O)C=C(C)C)C(O)CC21C (centres unmarked) [Compound B5] | moderate
CC(C)=CC(=O)OCC1(C)C(OC(=O)C=C(C)C)CCC2(C)C1CCC1(C)C2CC=C2C3CC(C)(C)C(O)C(O)C3(COC(=O)C=C(C)C)C(O)CC21C (centres unmarked) [Compound B6] | moderate
CC(C)=CC(=O)OCC1(C)C(O)CCC2(C)C1CCC1(C)C2CC=C2C3CC(C)(C)C(O)C(O)C3(COC(=O)C=C(C)C)C(OC(=O)C=C(C)C)CC21C (centres unmarked) [Compound B7] | moderate
CC(C)=CC(=O)OCC1(C)C(O)CCC2(C)C1CCC1(C)C2CC=C2C3CC(C)(C)C(OC(=O)C=C(C)C)C(OC(=O)C=C(C)C)C3(COC(=O)C=C(C)C)C(O)CC21C (centres unmarked) [Compound B8] | weak
CC(C)=CC(=O)OCC1(C)C(OC(=O)C=C(C)C)CCC2(C)C1CCC1(C)C2CC=C2C3CC(C)(C)C(O)C(OC(=O)C=C(C)C)C3(COC(=O)C=C(C)C)C(O)CC21C (centres unmarked) [Compound B9] | weak
CC(C)=CC(=O)OCC1(C)C(OC(=O)C=C(C)C)CCC2(C)C1CCC1(C)C2CC=C2C3CC(C)(C)C(O)C(O)C3(COC(=O)C=C(C)C)C(OC(=O)C=C(C)C)CC21C (centres unmarked) [Compound B10] | weak
CC(C)=CC(=O)OCC1(C)C(OC(=O)C=C(C)C)CCC2(C)C1CCC1(C)C2CC=C2C3CC(C)(C)C(OC(=O)C=C(C)C)C(O)C3(COC(=O)C=C(C)C)C(O)CC21C (centres unmarked) [Compound B11] | weak
CC(C)=CC(=O)OCC1(C)C(O)CCC2(C)C1CCC1(C)C2CC=C2C3CC(C)(C)C(O)C(OC(=O)C=C(C)C)C3(COC(=O)C=C(C)C)C(OC(=O)C=C(C)C)CC21C (centres unmarked) [Compound B12] | weak
CC(C)=CC(=O)OCC1(C)C(O)CCC2(C)C1CCC1(C)C2CC=C2C3CC(C)(C)C(OC(=O)C=C(C)C)C(O)C3(COC(=O)C=C(C)C)C(OC(=O)C=C(C)C)CC21C (centres unmarked) [Compound B13] | weak
CC(C)=CC(=O)OCC1(C)C(OC(=O)C=C(C)C)CCC2(C)C1CCC1(C)C2CC=C2C3CC(C)(C)C(O)C(OC(=O)C=C(C)C)C3(COC(=O)C=C(C)C)C(O)CC21C (centres unmarked) [Compound B14] | weak
CC(C)=CC(=O)OCC1(C)C(OC(=O)C=C(C)C)CCC2(C)C1CCC1(C)C2CC=C2C3CC(C)(C)C(OC(=O)C=C(C)C)C(OC(=O)C=C(C)C)C3(COC(=O)C=C(C)C)C(O)CC21C (centres unmarked) [Compound B15] | weak
CC(C)=CC(=O)OCC1(C)C(O)CCC2(C)C1CCC1(C)C2CC=C2C3CC(C)(C)C(OC(=O)C=C(C)C)C(OC(=O)C=C(C)C)C3(COC(=O)C=C(C)C)C(OC(=O)C=C(C)C)CC21C (centres unmarked) [Compound B16] | weak
CC(C)=CC(=O)OCC1(C)C(OC(=O)C=C(C)C)CCC2(C)C1CCC1(C)C2CC=C2C3CC(C)(C)C(OC(=O)C=C(C)C)C(O)C3(COC(=O)C=C(C)C)C(OC(=O)C=C(C)C)CC21C (centres unmarked) [Compound B17] | weak
CC(C)=CC(=O)OCC1(C)C(OC(=O)C=C(C)C)CCC2(C)C1CCC1(C)C2CC=C2C3CC(C)(C)C(O)C(OC(=O)C=C(C)C)C3(COC(=O)C=C(C)C)C(OC(=O)C=C(C)C)CC21C (centres unmarked) [Compound B18] | weak
CC(C)=CC(=O)OCC1(C)C(OC(=O)C=C(C)C)CCC2(C)C1CCC1(C)C2CC=C2C3CC(C)(C)C(OC(=O)C=C(C)C)C(OC(=O)C=C(C)C)C3(COC(=O)C=C(C)C)C(OC(=O)C=C(C)C)CC21C (centres unmarked) [Compound B19] | none
CC(C)=CC(=O)OCC12C(O)CC3(C)C(=CCC4C5(C)CCC(O)C(C)(CO)C5CCC43C)C1CC(C)(C)C(OC(=O)C=C(C)C)C2OC(=O)C=C(C)C (centres unmarked) [Compound B20] | moderate
CC(C)=CC(=O)OCC1(C)C(O)CCC2(C)C1CCC1(C)C2CC=C2C3CC(C)(C)C(OC(=O)C=C(C)C)C(OC(=O)C=C(C)C)C3(CO)C(O)CC21C (centres unmarked) [Compound B21] | moderate
